# From US20240252488A1 (KOREA RESEARCH INSTITUTE OF CHEMICAL TECHNOLOGY, priority 2020, published 2024)
# Assays:
# FADD−/− Jurkat cells = assay: Necroptosis inhibition assay, TNF-α-induced necroptosis (CellTiter-Glo 2.0); assay type: cell-based, human; settings: TNF-α 15 ng/mL; for Necroptosis inhibition assay (Rescue %) 1 μM: compound 1 μM; for Necroptosis inhibition assay (Rescue %) 10 μM: compound 10 μM
# Procedure, shortened: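 Cmpd 0.1/1/10 μM final, 30 min RT preincubation; TNF-α 15 ng/mL final; 20–24 h, 37° C, 5% CO2. Readout: ATP luminescence (reagent 1:3 in PBS), 0.5 s/well. Cytotoxicity and % necroptosis inhibition calculated from signal.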
# MLKL [1] = target: T1, MLKL (Homo sapiens, UniProt Q8NB16); assay: MLKL degradation assay in HepG2 cell line (western blot); assay type: cell-based; set-up: endogenous in cells; host or cells: HepG2 or HaCaT; settings: cell line not given; for Degradation assay (Degradation %) 1 μM: compound 1 μM; for Degradation assay (Degradation %) 10 μM: compound 10 μM
# T1 sequence (Q8NB16 1-471): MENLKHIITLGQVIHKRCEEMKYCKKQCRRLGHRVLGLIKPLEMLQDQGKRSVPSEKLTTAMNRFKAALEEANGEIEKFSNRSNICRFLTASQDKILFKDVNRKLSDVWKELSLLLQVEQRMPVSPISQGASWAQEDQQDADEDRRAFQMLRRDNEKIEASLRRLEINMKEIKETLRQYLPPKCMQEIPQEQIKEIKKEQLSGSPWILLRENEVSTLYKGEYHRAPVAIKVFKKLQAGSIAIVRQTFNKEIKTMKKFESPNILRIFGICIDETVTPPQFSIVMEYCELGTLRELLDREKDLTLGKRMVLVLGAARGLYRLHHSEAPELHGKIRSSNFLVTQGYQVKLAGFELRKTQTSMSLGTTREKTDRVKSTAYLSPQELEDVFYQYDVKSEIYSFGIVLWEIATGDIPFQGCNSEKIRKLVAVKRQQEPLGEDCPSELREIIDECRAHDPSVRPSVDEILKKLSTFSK
# Procedure, shortened: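 HepG2, cpd final 1 or 10 μM, 20-24 h, 37 °C/5% CO2; RIPA lysis, BCA-normalized, 10-15 μg/lane SDS-PAGE, western blot, ECL read-out.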
# MLKL [2] = target: T1, MLKL; assay: Measurement of binding affinity with MLKL receptor (competitive binding assay, Kd); set-up: made in house; host or cells: HEK 293 cell line (T7 phage in E. coli BL21-derived host is also described)
# Procedure, shortened: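 Kd comes from a bead-based competition format: compound-dependent loss of DNA-tagged, HEK 293-expressed MLKL capture, measured as eluate kinase by qPCR. Final DMSO is 0.9%.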
Compound,Necroptosis inhibition assay (Rescue %) 1 μM (FADD−/− Jurkat cells) [%],Necroptosis inhibition assay (Rescue %) 10 μM (FADD−/− Jurkat cells) [%],Degradation assay (Degradation %) 1 μM (MLKL [1]) [%],Degradation assay (Degradation %) 10 μM (MLKL [1]) [%],Kd (MLKL [2]) [nM],Necroptosis inhibition assay (Rescue %) 1 μM (FADD−/− Jurkat cells; FADD−/− Jurkat cells) [%],Necroptosis inhibition assay (Rescue %) 10 μM (FADD−/− Jurkat cells; FADD−/− Jurkat cells) [%]
"Nc1ncc(-c2cnn(C3CCN(CC4CCN(C(=O)C5CCN(c6ccc7nnn(C8CCC(=O)NC8=O)c(=O)c7c6)CC5)CC4)CC3)c2)nc1C(=O)O[C@@H](C(=O)Nc1ccc(F)cc1)c1ccccc1 (stereo partly drawn) [TDH-151, (R)-2-((4-fluorophenyl)amino)-2-oxo-1-phenylethyl 3-amino-6-(1-(1-((1-(1-(3-(2,6-dioxopiperidin-3-yl)-4-oxo-3,4-dihydrobenzo[d][1,2,3]triazin-6-yl)piperidine-4-carbonyl)piperidin-4-yl)methyl)piperidin-4-yl)-1H-pyrazol-4-yl)pyrazine-2-carboxylate]",85.85,60.12,84.58,77.74,12,–,–
"Nc1ncc(-c2cnn(C3CCN(CC4CCN(C(=O)CCc5cccc6c5CN(C5CCC(=O)NC5=O)C6=O)CC4)CC3)c2)nc1C(=O)O[C@@H](C(=O)Nc1ccc(F)cc1)c1ccccc1 (stereo partly drawn) [TDH-384, (R)-2-((4-fluorophenyl)amino)-2-oxo-1-phenylethyl 3-amino-6-(1-(1-((1-(3-(2-(2,6-dioxopiperidin-3-yl)-1-oxoisoindolin-4-yl)propanoyl)piperidin-4-yl)methyl)piperidin-4-yl)-1H-pyrazol-4-yl)pyrazine-2-carboxylate]",39.08,9.67,81.59,58.63,1.9,–,–
"Nc1ncc(-c2cnn(C3CCN(C(=O)CCC4CCN(C(=O)CCc5cccc6c5C(=O)N(C5CCC(=O)NC5=O)C6=O)CC4)CC3)c2)nc1C(=O)O[C@@H](C(=O)Nc1ccc(F)cc1)c1ccccc1 (stereo partly drawn) [TDH-431, (R)-2-((4-fluorophenyl)amino)-2-oxo-1-phenylethyl 3-amino-6-(1-(1-(3-(1-(3-(2-(2,6-dioxopiperidin-3-yl)-1,3-dioxoisoindolin-4-yl)propanoyl)piperidin-4-yl)propanoyl)piperidin-4-yl)-1H-pyrazol-4-yl)pyrazine-2-carboxylate]",–,–,86.88,76.78,1,37.24,17.64
"Nc1ncc(-c2ccc(N3CCN(CCOCCOCCNC(=O)C4CCN(c5cccc6c5C(=O)N(C5CCC(=O)NC5=O)C6=O)CC4)CC3)nc2)nc1C(=O)OC(C(=O)Nc1ccc(F)cc1)c1ccccc1 (stereo not drawn) [TDH-257, 2-((4-fluorophenyl)amino)-2-oxo-1-phenylethyl 3-amino-6-(6-(4-(2-(2-(2-(1-(2-(2,6-dioxopiperidin-3-yl)-1,3-dioxoisoindolin-4-yl)piperidine-4-carboxamido)ethoxy)ethoxy)ethyl)piperazin-1-yl)pyridin-3-yl)pyrazine-2-carboxylate]",24.61,21.71,7.56,26.63,96,–,–
"Nc1ncc(-c2cnn(C3CCN(CCCN4CCN(C(=O)COc5ccc6c(c5)C(=O)N(C5CCC(=O)NC5=O)C6=O)CC4)CC3)c2)nc1C(=O)O[C@@H](C(=O)Nc1ccc(F)cc1)c1ccccc1Cl (stereo partly drawn) [TDH-494, (R)-1-(2-chlorophenyl)-2-((4-fluorophenyl)amino)-2-oxoethyl 3-amino-6-(1-(1-(3-(4-(2-((2-(2,6-dioxopiperidin-3-yl)-1,3-dioxoisoindolin-5-yl)oxy)acetyl)piperazin-1-yl)propyl)piperidin-4-yl)-1H-pyrazol-4-yl)pyrazine-2-carboxylate]",–,–,80.66,88.82,0.98,43.07,−7.06
"Nc1ncc(-c2cnn(C3CCN(CCCN4CCN(C(=O)CCc5ccc6c(c5)CN(C5CCC(=O)NC5=O)C6=O)CC4)CC3)c2)nc1C(=O)O[C@@H](C(=O)Nc1ccc(F)cc1)c1ccccc1 (stereo partly drawn) [TDH-476, (R)-2-((4-fluorophenyl)amino)-2-oxo-1-phenylethyl 3-amino-6-(1-(1-(3-(4-(3-(2-(2,6-dioxopiperidin-3-yl)-1-oxoisoindolin-5-yl)propanoyl)piperazin-1-yl)propyl)piperidin-4-yl)-1H-pyrazol-4-yl)pyrazine-2-carboxylate]",–,–,87.94,73.34,0.32,47.52,25.23
"Nc1ncc(-c2cnn([C@H]3CCN(CCOCCOCCNC(=O)COc4ccc5c(c4)C(=O)N(C4CCC(=O)NC4=O)C5=O)C3)c2)nc1C(=O)OC(C(=O)Nc1ccc(F)cc1)c1ccccc1 (stereo partly drawn) [TDH-266, 2-((4-fluorophenyl)amino)-2-oxo-1-phenylethyl 3-amino-6-(1-((3S)-1-(2-(2-(2-(2-((2-(2,6-dioxopiperidin-3-yl)-1,3-dioxoisoindolin-5-yl)oxy)acetamido)ethoxy)ethoxy)ethyl)pyrrolidin-3-yl)-1H-pyrazol-4-yl)pyrazine-2-carboxylate]",35.24,68.2,18.14,40.08,6,–,–
"Nc1ncc(-c2cnn(C3CCN(CCCN4CCN(C(=O)CCc5cccc6c5C(=O)N(C5CCC(=O)NC5=O)C6=O)CC4)CC3)c2)nc1C(=O)O[C@@H](C(=O)Nc1ccc(F)cc1)c1ccccc1 (stereo partly drawn) [TDH-382, (R)-2-((4-fluorophenyl)amino)-2-oxo-1-phenylethyl 3-amino-6-(1-(1-(3-(4-(3-(2-(2,6-dioxopiperidin-3-yl)-1,3-dioxoisoindolin-4-yl)propanoyl)piperazin-1-yl)propyl)piperidin-4-yl)-1H-pyrazol-4-yl)pyrazine-2-carboxylate]",59.24,22.12,81.82,81.68,0.42,–,–
"COc1ccc(C(=O)N2CCC(C(=O)N3CCC(CCN4CCC(CN5CCC(n6cc(-c7cnc(N)c(C(=O)O[C@@H](C(=O)Nc8ccc(F)cc8)c8ccccc8)n7)cn6)CC5)CC4)CC3)CC2)cc1N1CCC(=O)NC1=O [TDH-502, (R)-2-((4-fluorophenyl)amino)-2-oxo-1-phenylethyl 3-amino-6-(1-(1-((1-(2-(1-(1-(3-(2,4-dioxotetrahydropyrimidin-1(2H)-yl)-4-methoxybenzoyl)piperidine-4-carbonyl)piperidin-4-yl)ethyl)piperidin-4-yl)methyl)piperidin-4-yl)-1H-pyrazol-4-yl)pyrazine-2-carboxylate]",–,–,85.39,91.54,0.42,54.75,66.18
